{"source": "patent US12691100B2", "about": "“NMT inhibitor treatment of a senescence-associated disease or disorder of the liver” (Imperial College Innovations Limited, priority 2020, dated 2026)", "key": {"[1]": {"test": "Liver lipids (Oil Red O) and blood glucose in the same cohort of old mice", "type": "in vivo, C57BL/6J female mice", "conditions": "10 mg/kg i.p.", "protocol": "(§1) For analysis of immune cell composition in whole blood, tail-vein blood was collected 2 days after last treatment. Whole blood was diluted in saline to a volume of […] and ran on a Sysmex XE2100 automated cell counter. Blood glucose levels were determined by collecting whole-blood from tail vein into heparinised tubes (Abraxis), 120-140 μL of whole-blood to be loaded onto a comprehensive diagnostic profile reagent rotor (Abraxis) and run on a VetScan VS2 Chemistry Analyzer (Abraxis: 500-7123).\n(§2) Oil Red O staining for lipids was carried out on liver tissue in OCT was snap-frozen in liquid N2 and cryosectioned (15 μM). Sections were equilibrated to RT for 10 min and then stained with 0.5% Oil Red O solution (w/v, in isopropanol, Sigma, O1391) for 5 min, rinsed in tap water and counterstained with Mayer's hematoxylin for 30 s. Then sections were again rinsed in tap water for 30 min and coverslips mounted. Images were acquired on Zeiss AxioScan Z.1 and ImageJ quantification of Oil-red stain area relative to background tissue area performed for 3 fields per section.\nTo understand what effects are associated with the treatment with NMT inhibitors in vivo, we analysed different parameters in the same cohort of old mice described in FIG. 17A. First, we looked into the accumulation of lipid droplets in the liver using Oil Red O staining. These are an indication of hepatic steatosis, and importantly, elimination of senescent cells has been previously shown capable to reduce steatosis.\nOther pathological change observed in old mice is the presence of increased levels of glucose in blood. This can be related with diabetes or metabolic disease. Importantly, both pathologies have been associated with the presence of senescent cells."}, "[2]": {"test": "High fat diet model of nonalcoholic steatohepatitis (NASH)", "type": "in vivo, male C57/BL6 mice", "conditions": "HFD mice, 10 mg/kg", "from_the_text": "For high-fat diet experiments C57BL/6J male mice aged 8-weeks old were placed on Chow or high-fat diet (kcal 40% fat (non-trans-fat Primex Shortening), kcal 20% fructose, 2% cholesterol, D1602230i) for 4 weeks prior to first round of injections. […] Blood was collected prior to each round of injection for physiological assessments. Mice were allowed to rest 4 weeks prior to being culled and organs collected for freezing in OCT, paraffin embedding, blood collection for physiological measurements and tissue snap-freezing for RNA extraction.\nas §1\nImmunohistochemical staining—Slides were deparaffinised by washing slides twice in Histoclear™ for 5 min each, followed by 5 min washes in decreasing concentrations of ethanol with 100%, 75%, 50% & 25% ethanol washes before a final wash 5 min in dH2O. Heat induced epitope retrieval (HIER) was then performed in pressure cooker for 20 min using either antigen-unmasking solution, Citrate-based at pH 6.0 (VectorLab H-3300-250) or antigen-unmasking solution, Tris-based at pH 9.0 (VectorLab H-3301-250) depending on antibody manufacturers' instructions. Following HIER, slides were cooled on ice for 10 min and then washed in PBS for 5 min. For intracellular stains, sections were permeabilized with 0.2% Triton X-100 in PBS for 10 min and washed twice in PBS for 5 min. For NRAS staining in liver slides were washed in 0.1% H2O2 in PBS for 15 min followed by washing twice in PBS to reduce endogenous peroxide activity. Sections were marked using hydrophobic pen and Non-specific antigen binding was blocked by incubating slides with CAS-Block™ Histochemical reagent (ThermoFisher, 008120) for 30-45 min in a humidified chamber. Slides were then incubated with primary antibody overnight in a humidified chamber at 4° C. For experiments utilising p21 antibody, slides were incubated with primary p21 antibody (p21 [EPR18021], Abcam, 1:200) overnight in a humidified chamber at 4° C. Slides were washed twice in PBS for 5 min and incubated with secondary antibody SignalStain® Boost IHC detection reagent Mouse/Rabbit, HRP (Cell Signalling Technology, 8125) for 30-45 min. Next, slides were washed twice in PBS for 5 min and incubated for 2-10 min with SignalStain® DAB substrate kit (CST, 8059) to detect HRP signal. Signal development was stopped when visible positive cells could be detected on a microscope, by washing slides in dH2O. To counterstain DAB signal, slides were incubated for 30 s in Modified Mayer's Hematoxylin (Lillie's Modification) (DAKO), washed in dH2O, and incubated for 30 s in 0.05% Ammonium solution (PBS) followed by washing in dH2O. Prior to mounting coverslips with VectaMount aqueous mounting media (VectorLab, H-5501-60) slides were dehydrated by washing 1 min in 75% Ethanol, 5 min in 100% Ethanol and 5 min in Histoclear®.\nas §2, with “section. […]” for “section.”"}}, "data": [{"smiles": "Cc1c(NS(=O)(=O)c2c(Cl)cc(-c3ccnc(N4CCNCC4)c3)cc2Cl)c(CC(C)C)nn1C", "note": "[Compound 2]", "values": [{"measurement": "Glucose in blood, fasted mice", "setting": "[1]; old mice fasted, FIG. 18C", "value": "lower levels of glucose"}, {"measurement": "Glucose in blood, fed mice", "setting": "[1]; old mice kept fed, FIG. 18B", "value": "lower levels of glucose"}, {"measurement": "Accumulation of lipids in the liver (Oil Red O staining)", "setting": "[1]; ~26 month female mice, FIG. 18A", "value": "reduced accumulation of lipids in the liver"}, {"measurement": "Liver fibrosis (Sirius red staining)", "setting": "[2]; FIG. 23", "value": "normalized"}, {"measurement": "p21^CIP1-positive hepatocytes in the liver", "setting": "[2]; FIG. 24A", "value": "reduction of p21^CIP1-positive hepatocytes"}, {"measurement": "Lipid accumulation (steatosis) in liver", "setting": "[2]; FIG. 24D", "value": "reduction in this lipid accumulation"}, {"measurement": "Transcriptional signatures of collagen formation in liver", "setting": "[2]; GSEA, FIG. 24E", "value": "downregulation"}, {"measurement": "Transcriptional signature of Fridman senescence in liver", "setting": "[2]; GSEA, FIGS. 24B-C", "value": "downregulation"}, {"measurement": "Transcriptional signature of senescence-associated secretory phenotype in liver", "setting": "[2]; GSEA, FIGS. 24B-C", "value": "downregulation"}, {"measurement": "Col1a1 mRNA in liver", "setting": "[2]; RT-qPCR, FIGS. 24F-G", "value": "lower"}, {"measurement": "Col4a1 mRNA in liver", "setting": "[2]; RT-qPCR, FIGS. 24F-G", "value": "lower"}, {"measurement": "ALP in blood", "setting": "[2]; before 3rd round, FIGS. 22B-D", "value": "normalised"}, {"measurement": "ALT in blood", "setting": "[2]; before 3rd round, FIGS. 22B-D", "value": "normalised"}, {"measurement": "Albumin in blood", "setting": "[2]; before 3rd round, FIGS. 22B-D", "value": "normalised"}, {"measurement": "suPAR in blood", "setting": "[2]; before 3rd round, versus vehicle, FIG. 22A", "value": "lower levels of suPAR"}]}]}
